# Key:
# [1] = Body weight and death of tumor-bearing mice in the in-vivo pharmacodynamic test
# Procedure: (§1) In-vivo pharmacodynamic test: H22 liver cancer cells, 4T1 breast cancer cells, EMT6 breast cancer cells and HT-29 colon cancer cells that were growing at logarithmic phase were collected, and the concentration of the cell suspension was adjusted to 3×10^7 cells/mL. The cells were subcutaneously inoculated into right upper extremity of Balb/c mice or nude mice with 0.1 mL per mouse (containing about 3×10^6 cells). After the average tumor volume of the inoculated mice was reached 100 mm^3, the tumor-bearing mice were randomly divided into a negative control group (with 0.9% sodium chloride injection), an adriamycin control group (5 mg/kg) and a pectin-adriamycin experimental group (the equivalent of adriamycin being 5 mg/kg) respectively, 8 mice for each group, the above various drugs were intravenously injected for 4 times in total. The tumor volume change and the body weights were recorded, and the equation for volume calculation was as follows: volume=(length×width^2)/2.
# [2] = test system: MCF-7 breast cancer cells; assay: In-vitro cytotoxicity test (CCK-8); format: cell-based
# Procedure: (§2) In-vitro cytotoxicity test: HT-29 colon cancer cells, HepG-2 liver cancer cells, SMMC7721 liver cancer cells, SKOV3 ovarian cancer cells and MCF-7 breast cancer cells that were growing at the logarithmic phase were collected. The concentration of cell suspension was adjusted, and 100 uL of the cell suspension was added per well, then the cells were plated so that the density of cells to be tested was 4000 cells/well (the marginal wells being filled with a sterile PBS). Incubation was performed for 24 hours at 5% CO2 and 37° C. Then the medium was discarded, and pectin-adriamycin or adriamycin with a concentration gradient (containing 0.125, 0.25, 0.5, 1.0, 2.0, 4.0, 8.0 and 16.0 ug/mL of […]) was added, and three repetitions were set for each concentration. Then incubation was performed for 48 hours in an incubator at 5% CO2 and 37° C. 10 μl of a CCK-8 solution was added to each well to continue cultivation for 2 hours. The absorbance of each well at 450 nm was measured with an Enzyme-labelled meter, and IC50 values of pectin-adriamycin and adriamycin for various cancer cells were calculated.
# [3] = test system: HepG-2 liver cancer cells; assay: In-vitro cytotoxicity test (CCK-8); format: cell-based
# Procedure: as §2
# [4] = test system: SMMC7721 liver cancer cells; assay: In-vitro cytotoxicity test (CCK-8); format: cell-based
# Procedure: as §2
# HT-29 colon cancer cells = assay: In-vitro cytotoxicity test (CCK-8); format: cell-based
# Procedure: as §2
# [5] = test system: SKOV3 ovarian cancer cells; assay: In-vitro cytotoxicity test (CCK-8); format: cell-based
# Procedure: as §2
# 4T1 breast cancer [6] = assay: In-vivo pharmacodynamic test, tumor-bearing mice; settings: 4T1 breast cancer tumor-bearing mice, 5 mg/kg adriamycin equivalent, intravenously injected 4 times
# Procedure: as §1
# EMT-6 breast cancer = assay: In-vivo pharmacodynamic test, tumor-bearing mice; settings: EMT-6 breast cancer tumor-bearing mice, 5 mg/kg adriamycin equivalent, intravenously injected 4 times
# Procedure: as §1
# H22 liver cancer [7] = assay: In-vivo pharmacodynamic test, tumor-bearing mice; settings: 5 mg/kg adriamycin equivalent, intravenously injected 4 times
# Procedure: as §1
# 4T1 breast cancer [8] = assay: Comparison with the control compound, 4T1 breast cancer mice tumor model; format: in vivo
# H22 liver cancer [9] = assay: Comparison with the control compound, H22 liver cancer mice tumor model; format: in vivo
# Solubility in water = format: physicochemical
# HT-29 colon cancer = assay: In-vivo pharmacodynamic test, tumor-bearing mice; settings: HT-29 colon cancer tumor-bearing mice, 5 mg/kg adriamycin equivalent, intravenously injected 4 times
# Procedure: as §1
# [10] = tumor-bearing mice, 5 mg/kg adriamycin equivalent, i.v. 4 times
# [11] = Example 16, conjugate intravenous, control intraperitoneal
compound,measurement,setting,value
"COc1cccc2c1C(=O)c1c(O)c3c(c(O)c1C2=O)C[C@@](O)(C(=O)CO)C[C@@H]3O[C@H]1C[C@H](N)[C@H](O)[C@H](C)O1 [adriamycin, reference compound]",body weight decrease,"[1]; mouse, in vivo, iv, 5 mg/kg",more than 15%
same,body weights of the mice,"[1]; mouse, in vivo, iv, 5 mg/kg",significantly decreased
same,death of mice,[1]; [10],minormice died
same,IC50,"[2]; Homo sapiens, MCF7, 48 hours incubation",3.97 µg/mL
same,IC50,"[3]; Homo sapiens, HepG2, 48 hours incubation",4.38 µg/mL
same,IC50,"[4]; Homo sapiens, SMMC-7721, 48 hours incubation",2.62 µg/mL
same,IC50,"HT-29 colon cancer cells; Homo sapiens, HT-29, 48 hours incubation",10.9 µg/mL
same,IC50,"[5]; Homo sapiens, SK-OV-3, 48 hours incubation",5.7 µg/mL
same,tumor growth inhibition rate,4T1 breast cancer [6],50.61%
same,tumor growth inhibition rate,EMT-6 breast cancer,56.95%
same,tumor growth inhibition rate,H22 liver cancer [7],53.42%
modified pectin-PEG8-VAPABC-adriamycin [pectin-adriamycin conjugate],body weights of the mice,[1]; [10],not significantly decreased
same,death of mice,[1]; [10],no a mouse died
same,"IC50, MCF-7 breast cancer",[2]; 48 hours incubation,3.961 µg/mL
same,"IC50, HepG-2 liver cancer",[3]; 48 hours incubation,4.11 µg/mL
same,"IC50, SMMC7721 liver cancer",[4]; 48 hours incubation,2.31 µg/mL
same,"IC50, HT-29 colon cancer",HT-29 colon cancer cells; 48 hours incubation,10.74 µg/mL
same,"IC50, SKOV3 ovarian cancer",[5]; 48 hours incubation,5.488 µg/mL
same,tumor inhibition rate,4T1 breast cancer [8]; [11],76.20%
same,inhibition time,"4T1 breast cancer [8]; same dosage, versus control compound (FIG. 9)",longer
same,tumor inhibition rate,H22 liver cancer [9]; [11],70.83%
same,inhibition time,"H22 liver cancer [9]; same dosage, versus control compound (FIG. 8)",longer
same,Solubility in water,Solubility in water,"10 mg/ml, solubility being"
same,tumor growth inhibition rate,4T1 breast cancer [6],78.1%
same,curative effect,HT-29 colon cancer,better than that of the adriamycin control
same,tumor growth inhibition rate,EMT-6 breast cancer,71.68%
same,tumor growth inhibition rate,H22 liver cancer [7],72.98%

# Reference: patent US11596643B2 (Sichuan Yingrui Pharmaceutical Technology Company, priority 2019, dated 2023)
